Results from PMC7593906, “Synthesis and HPLC-ECD Study of Cytostatic Condensed O,N-Heterocycles Obtained from 3-Aminoflavanones” (Biomolecules, 2020).

Columns and labels:
[1] = test system: A2780 ovarian carcinoma cell line; test: MTT assay, viability of A2780 cells; type: cell-based, human; conditions: for antiproliferative activity at 50 μM concentration: A2780, 50 μM, monitored at 24 and 72 h (Figure S262); for IC50: MTT assay, cells treated daily for 3 days
Method: (§1) The number of viable cells was indirectly determined by measuring the conversion of the tetrazolium salt MTT (3-{4,5-dimethilthiasol-2-il}-2,5-diphenyltetrasolium bromide, Sigma-Aldrich) to formazan by mitochondrial dehydrogenases. Cells were plated in 96-well multi-titer plates (10,000 cells per well density) in quadruplicates and were cultured for 3 days and treated by the compounds daily. Negative control group was treated with equal amount of vehicle solvent (DMSO) and positive control group was treated with 1 µg/mL doxorubicin. Cells were then incubated with 5 mg/mL MTT for 3 h, precipitated formazan crystals were dissolved in acidic isopropanol (10% 1 M HCl in isopropanol supplemented with 10% Triton X 100), and concentration of formazan was assessed colorimetrical way measuring absorbance at 565 nm.
(§2) Logistic dose-response curves were fitted using the equation y = A2 + (A1-A2)/(1 + (x/x0)^p) where the parameters are: A1: initial value (ymin), A2: final value (ymax), x0: center (EC/IC50), and p is the calculated power. Fittings were carried out and parameters were calculated using Origin 8.6 (OriginLab Corporation, Northampton, MA, USA).

WM35 melanoma cell line = test: MTT assay, viability of WM35 cells; type: cell-based, human; conditions: for antiproliferative activity at 50 μM concentration: WM35, 50 μM, monitored at 24 and 72 h (Figure S263); for IC50: MTT assay, cells treated daily for 3 days; for EC20 (logistic fit) / EC80 (logistic fit): WM35, MTT dose-response fit, treated daily for 3 days, SI figures
Method: as §1, §2

[2] = test system: non-cancerous HaCaT human keratinocytes; test: MTT assay, viability of HaCaT keratinocytes; type: cell-based; parameters: EC20 (logistic fit) / EC80 (logistic fit): unit not given here; conditions: for EC20 (logistic fit) / EC80 (logistic fit): MTT dose-response fit, treated daily for 3 days, SI figures; for IC50: MTT assay, cells treated daily for 3 days
Method: as §1, §2

[3] = test system: A2780 ovarian carcinoma cells; test: MitoProbe DilC1(5) assay, mitochondrial membrane potential; type: cell-based, human; conditions: A2780, 24 hrs incubation
Excerpt: (§3) 2.13. MitoProbe^TM DilC1(5) Assay and SYTOX Green Labeling
(§4) Decrease in mitochondrial membrane potential is an early hallmark of apoptosis and the disruption of the plasma membrane integrity is characteristic for cellular necrosis. These events were investigated simultaneously using MitoProbe^TM DilC1(5) assay kit and SYTOX green (both from Molecular Probes/ThermoiFisher) staining, respectively. DilC1(5) (1,1′,3,3,3′,3′-hexamethylindodicarbo - cyanine iodide) is a fluorescent cyanine dye which penetrates cytoplasm with intact membrane and accumulates primarily in mitochondria depending on the mitochondrial membrane potential. […] SYTOX Green is a nucleic acid stain impermeant to live cells with intact plasma membrane, but it penetrates the compromised membrane of necrotic, dead cells resulting in a bright green fluorescent nuclear staining.
(§5) Cells were plated in 96-well multi-titer plates (10,000 cells per well density) in quadruplicates and were incubated for 24 h with various concentrations of rac-19g. […] Finally, the excess of the dyes was removed, cells were gently washed in PBS, and fluorescence of DilC1(5) and SYTOX Green was measured at 630/680 nm and 490/520 nm (excitation/emission), respectively, using a FlexStation 3 (Molecular Devices) multimodal microplate reader.

[4] = test system: A2780 ovarian carcinoma cells; test: SYTOX Green labeling, plasma membrane integrity; type: cell-based; conditions: A2780, 24 hrs incubation
Excerpt: as §3, §4, §5

[5] = test system: A2780 ovarian carcinoma cells; test: CyQUANT cell proliferation assay, total DNA content; type: cell-based, human; conditions: A2780, 24 hrs incubation
Method: 2.14. CyQUANT® Cell Proliferation Assay
CyQUANT assay assesses the cellular proliferation indirectly by directly determining the DNA content in a cell population using CyQUANT fluorescent dye. […] Therefore, it is suitable to asses DNA synthesis associated with cellular proliferation. Cells were plated in 96-well multi-titer plates (10,000 cells per well density) in quadruplicates and were incubated for 24 h with various concentrations of rac-19g, then assayed for cellular proliferation following the manufacturer’s protocol. Briefly, supernatants were gently removed and the plate was snap frozen and stored at −70 °C. Then plate was thawed, cells were lysed and incubated with CyQUANT dye. The excess of the dye was removed and fluorescence was measured at 490/520 nm (excitation/emission) using a FlexStation 3 (Molecular Devices) multimodal microplate reader.

[6] = test system: chemoresistant forms of prostate cancer; parameters: method as in PMID 23423838; conditions: cited from earlier work
[7] = test system: acute myeloid leukemia cells; parameters: method as in PMID 31744877; conditions: across 30 human cell lines; read-out: EC50, viability of acute myeloid leukemia cells; cited from earlier work
[8] = A2780, MTT dose-response fit, treated daily for 3 days, SI figures

Compound | antiproliferative activity at 50 μM concentration [1] | antiproliferative activity at 50 μM concentration (WM35 melanoma cell line) | EC20 (logistic fit) ([2]; HaCaT) | EC80 (logistic fit) ([2]; HaCaT) | EC20 (logistic fit) [1, 8] | EC20 (logistic fit) (WM35 melanoma cell line) | EC80 (logistic fit) (WM35 melanoma cell line) | further results
Cc1nc2c(s1)-c1ccccc1OC2c1ccccc1 (racemic) [rac-3a, (±)-2-methyl-4-phenyl-4H-chromeno[3,4-d][1,3]thiazole] | much weaker activities | much weaker activities | – | – | – | – | – | –
COc1ccc(C2Oc3ccccc3-c3sc(C)nc32)cc1 (racemic) [rac-3b, (±)-2-methyl-4-(4-methoxyphenyl)-4H-chromeno[3,4-d][1,3]thiazole] | much weaker activities | much weaker activities | – | – | – | – | – | –
COc1ccc(C2Oc3ccccc3-c3sc(C)nc32)cc1OC (racemic) [rac-3c, (±)-2-methyl-4-(3,4-dimethoxyphenyl)-4H-chromeno[3,4-d][1,3]thiazole] | much weaker activities | much weaker activities | – | – | – | – | – | –
COc1cc(C2Oc3ccccc3-c3sc(C)nc32)cc(OC)c1OC (racemic) [rac-3e, (±)-2-methyl-4-(3,4,5-trimethoxyphenyl)-4H-chromeno[3,4-d][1,3]thiazole] | – | – | 3.395 | 11.45 | 1,58958 mM | 0,11527 µM | 39,68998 µM | IC50 ([2]; Homo sapiens, HaCaT, 72 h): 6.23 ± 1.25 µM; IC50 ([1]; Homo sapiens, A2780, 72 h): 2.74 µM; IC50 [1]: 2.72 ± 0.48 µM; melting point: 113 to 115 °C; IC50 (WM35 melanoma cell line; Homo sapiens, WM35, 72 h): 2.14 ± 1.85 µM
Cc1nc2c(s1)-c1ccccc1OC2c1ccc2ccccc2c1 (racemic) [rac-3g, (±)-2-methyl-4-(naphthalen-2-yl)-4H-chromeno[3,4-d][1,3]thiazole] | much weaker activities | much weaker activities | – | – | – | – | – | melting point: 129 to 130 °C
CCOC(=O)c1c(C)[nH]c2c1-c1ccccc1OC2c1ccc(OC)cc1 (racemic) [rac-4b, (±)-ethyl 2-methyl-4-(4-methoxyphenyl)-3,4-dihydrochromeno[3,4-b]pyrrole-1-carboxylate] | – | – | 2.492 | 36.73 | 1,99005 mM | 1,2746 µM | 26,63177 µM | IC50 [2]: 9.57 ± 8.77 µM; IC50 [1]: 4.84 ± 1.38 µM; IC50 (WM35 melanoma cell line): 5.83 ± 1.78 µM
CCOC(=O)c1c(C)[nH]c2c1-c1ccccc1OC2c1ccc(OC)c(OC)c1 (racemic) [rac-4c, (±)-ethyl 2-methyl-4-(3,4-dimethoxyphenyl)-3,4-dihydrochromeno[3,4-b]pyrrole-1-carboxylate] | – | – | 0.9397 | 4.167 | 2,14809 mM | 1,55024 µM | 43,44318 µM | IC50 [2]: 1.97 ± 0.29 µM; IC50 [1]: 5.34 ± 0.88 µM; IC50 (WM35 melanoma cell line): 8.21 ± 4.38 µM
CCOC(=O)c1c(C)[nH]c2c1-c1ccccc1OC2c1ccc2ccccc2c1 (racemic) [rac-4g, (±)-ethyl 2-methyl-4-(naphthalen-2-yl)-3,4-dihydrochromeno[3,4-b]pyrrole-1-carboxylate] | – | – | – | – | – | – | – | melting point: 149 to 151 °C
O=C(CCl)N[C@@H]1[C@@H](O)c2ccccc2O[C@H]1c1ccc2ccccc2c1 (racemic) [rac-19g, (±)-2-chloro-N-[(2R*,3S*,4R*)-4-Hydroxy-2-(naphthalen-2-yl)-3,4-dihydro-2H-chromen-3-yl]acetamide] | – | – | – | – | 0,01488 mM | 1,26314 µM | 9,68285 µM | mitochondrial membrane potential [DilC1(5) staining] [3]: decreased the mitochondrial membrane potential; integrity of the plasma membrane (SYTOX Green staining) [4]: intact (negative SYTOX Green staining); IC50 ([2]; Homo sapiens, HaCaT, 72 h): 6.06 ± 3.3 µM; proliferation-associated DNA synthesis (CyQUANT Assay) [5]: inhibited proliferation-associated DNA synthesis; EC50 ([1]; Homo sapiens, 72 h, A2780, MTT dose-response fit, treated daily for 3 days, SI figures, read-out: EC50 (x0 of logistic fit) (converted)): 0.151 µM; IC50 ([1]; Homo sapiens, A2780, 72 h): 0.15 ± 0.14 µM; IC50 (WM35 melanoma cell line; Homo sapiens, WM35, 72 h): 3.5 ± 1.94 µM
COc1ccc([C@@H]2Oc3ccccc3[C@@H]3OCCN[C@@H]23)cc1.Cl (racemic) [rac-(4aS*,5R*,10bR*)-2b, (±)-(4aR*,5S*,10bS*)-5-(4-methoxyphenyl)-2,3,4,4a,5,10b-hexahydrochromeno[4,3-b][1,4]oxazine hydrochloride] | the most active | the most active | 7.569 | 38.76 | 6,72446 mM | 26,114 µM | 43,39258 µM | IC50 [2]: 17.1 ± 7.95 µM; IC50 [1]: 10.4 ± 2.71 µM
COc1cc(OC)cc([C@@H]2Oc3ccccc3[C@H]3OCCN[C@H]32)c1 (racemic) [rac-(4aS*,5R*,10bS*)-2d, (±)-(4aR*,5S*,10bR*)-5-(3,5-dimethoxyphenyl)-2,3,4,4a,5,10b-hexahydrochromeno[4,3-b][1,4]oxazine] | the most active | the most active | 11.28 | 81.84 | 10,79361 mM | 14,15843 µM | 53,361 µM | IC50 [2]: 30.4 ± 49.8 µM
COc1cccc2c1C(=O)c1c(O)c3c(c(O)c1C2=O)C[C@@](O)(C(=O)CO)C[C@@H]3O[C@H]1C[C@H](N)[C@H](O)[C@H](C)O1 [Doxorubicin, reference compound] | – | – | – | – | – | – | – | IC50 ([2]; Homo sapiens, HaCaT, 72 h): 0.03 µM; IC50 ([1]; Homo sapiens, A2780, 72 h): 0.07 µM; IC50 (WM35 melanoma cell line; Homo sapiens, WM35, 72 h): 0.14 µM
CCCCCCCCCCCCCCCC(O)C(CO)NC(=O)CBr (stereo not shown) [SABRAC] | – | – | – | – | – | – | – | growth of chemoresistant forms of prostate cancer [6]: inhibit the growth; EC50 [7]: ~3 µM
CCCCCCCCCCCCCCCC(O)C(CO)NC(=O)CCl (stereo not shown) [SACLAC] | – | – | – | – | – | – | – | growth of chemoresistant forms of prostate cancer [6]: inhibit the growth; EC50 [7]: ~3 µM
